# “And” between values parts separate entries of the source, which are not always exact repeats. Identical values can stand only once. Counter-ions that a name gives are not always drawn.
# Experiments:
# L. tropica amastigotes = L. tropica amastigotes in peritoneal exudate cells in Mc Coy's medium in vitro at 37° C.; type: cell-based
# Description: (§1) A. Scoring of drug activity:
# (§2) a. amastigotes in peritoneal exudate cells in Mc Coy's medium in vitro at 37° C.
# +++=clearance of all parasites in 24 hrs
# ++=clearance of all parasites in 48 hrs
# +=clearance of all parasites in 72 hrs
# ±=partial clearance of parasites in 72 hours or more
# -=no activity against parasites.
# L. tropica promastigotes = L. tropica promastigotes in Mc Coy's medium in vitro at 27° C.; type: cell-based
# Description: as §1
# (§3) b. promastigotes in Mc Coy's medium in vitro at 27° C.
# +++=no viable parasites after 24 hours
# ++=no viable parasites after 48 hours
# +=no viable parasites after 72 hours
# ±=no viable parasites after 96 hours
# -=viable parasites after 120 hours.
# Trypanosoma = Trypanosoma in RPMI medium in vitro at 37° C.; type: cell-based; conditions: for Trypanosoma in vitro, activity score: RPMI medium, 37° C.; for active against Trypanosoma: summary
# Description: Trypanosoma in RPMI medium in vitro at 37° C. Scoring as in b.
# Leishmania = experiment: Anti Leishmania tests (amastigotes and promastigotes), summary; type: cell-based, L. tropica
# Description: as §1, §2, §3
# [1] = test system: 4 mycoplasma (M. gallisepticum, capricolum, M. hominis, A. laidlawii); experiment: organism not typed; type: cell-based; conditions: read-out: 50% inhibition of growth in liquid medium, concentration
# Candida albicans = experiment: Antimycotic activity (human), growth on Sabouraud dextrose agar; type: cell-based; parameters: key to the marks not given beside the values
# Text: Control (full growth): ++++
# [2] = test system: haloperidol-induced catalepsy; experiment: Antiparkinson activity: anticataleptic effect in rats (haloperidol catalepsy); type: in vivo, Male Charles River albino rats; conditions: individual rats, 80 mg/kg i.p., one line per rat
# Description: (§4) Male Charles River albino rats, weighing 200-250 g, were used. Catalepsy was produced by haloperidol, 5 mg/kg i.p. The animals were placed with their front paws on a horizontal bar, about 10 cm above the ground, and animals were considered cataleptic if not changing posture for at least 30 sec. Cataleptic animals were injected l.p. with one of the drugs at a dose of 40-80 mg/kg. Catalepsy was estimated again at the intervals indicated.
# as §4, with “rats, wighing” for “rats, weighing”, “injected i.p.” for “injected l.p.”, “mg/kg. catalepsy” for “mg/kg. Catalepsy”
# [3] = test system: stereotyped behaviour (sniffing, biting, repetitive head movement); experiment: Stereotyped behaviour in mice; type: in vivo, Male ICR albino mice; parameters: stereotyped behaviour score / Total Score (stereotyped behaviour) / Mean Score (stereotyped behaviour): scale not given here; conditions: for Total Score (stereotyped behaviour): 0-240 min; for Total Score (stereotyped behaviour) / stereotyped behaviour score / Mean Score (stereotyped behaviour): 50 mg/kg i.p.; for Total Score (stereotyped behaviour) / stereotyped behaviour score: one line per mouse, in order Mouse 1 to Mouse 4; for Mean Score (stereotyped behaviour): mean of 4 mice
# Description: Male ICR albino mice weighing 25-30 g were put in cages with a metal grid floor, 4 in each cage. Drugs were injected intraperitoneally and stereotyped behaviour (sniffing, biting, repetitive head movement) was evaluated every 30 min.
# HSV-1 (Herpes Simplex) = experiment: Inhibition test on HSV replication; type: cell-based; conditions: Human alphaherpesvirus 1, BSC-1 cells, 10 PFU/cell; for inhibition at 25 µg/mL: 25 μg/ml; for inhibition at 50 µg/mL: 50 μg/ml; for inhibition at 100 µg/mL: 100 μg/ml
# Text: |INHIBITION TEST ON HSV REPLICATION |Cells |BSC-1 (Green monkey Kidney) |Virus |HSV-1 (Herpes Simplex) |Inoculum |10 PFU/cell |Medium |DMEM + 10% C.S. | Herpes | J. Levitt & Y. Becker | Virology 31, 129-134 (1967) | **% Inhibition of control infected for some time with same virus PFV with | no inhibition.
# [4] = Toxic limit in the HSV replication test; type: cell-based, Green monkey; conditions: monkey, bsc-1 cells; read-out: T.L. Toxic Limit (highest concentration of compound which is completely not toxic)
# Text: BSC-1 (Green monkey Kidney)
# *T.L. The highest concentration of compound which is completely not toxic
# Trichophyton rubrum = experiment: Antimycotic activity (human), growth on Sabouraud dextrose agar; parameters: key to the marks not given beside the values; conditions: 10 μg/ml
# [5] = test system: Trichophyton mentagrophytes; experiment: as above; parameters: key to the marks not given beside the values; conditions: 10 μg/ml
smiles,measurement,setting,value
"CNNCC12CC3CC(CC(C3)C1)C2 [Example 1, 1-(Adamant-1'-ylmethyl)-2-methylhydrazine hydrochloride]","Leishmania amastigote, activity score",L. tropica amastigotes; 10 μg,± (partial clearance of parasites in 72 hours or more)
same,"Leishmania amastigote, activity score",L. tropica amastigotes; 100 μg,± (partial clearance of parasites in 72 hours or more)
same,"Leishmania promastigote, activity score",L. tropica promastigotes; 10 μg,- (viable parasites after 120 hours.)
same,"Leishmania promastigote, activity score",L. tropica promastigotes; 100 μg,+++ (no viable parasites after 24 hours)
same,"Trypanosoma in vitro, activity score",Trypanosoma; 10 μg,± (no viable parasites after 96 hours)
same,"Trypanosoma in vitro, activity score",Trypanosoma; 100 μg,+++ (no viable parasites after 24 hours)
same,active against Trypanosoma,Trypanosoma,active
same,active against Leishmania,Leishmania,active
"c1ccc(CNNCC23CC4CC(CC(C4)C2)C3)cc1 [Example 3, 1-(Adamant-1'-ylmethyl)-2-benzylhydrazine hydrochloride]",IC50,[1],5 to 30 µg/mL
same,growth of C. albicans,Candida albicans; 10 μg/ml,++++
same,growth of C. albicans,Candida albicans; 50 μg/ml,++++
same,growth of C. albicans,Candida albicans; 100 μg/ml,++++
"C1CCN(NCC23CC4CC(CC(C4)C2)C3)C1 [Example 7, 1-(Adamant-1'-ylmethylamino)pyrrolidine hydrochloride]",IC50,[1],5 to 30 µg/mL
same,anticataleptic effect,"[2]; in order rat 1 to rat 5, hydrochloride",1/4 and 0/4 (3×) and 3/4
same,Total Score (stereotyped behaviour),"[3]; hydrochloride, 50 mg/kg",17 and 11 and 6 and 3
same,stereotyped behaviour score,[3]; 0 min,0
same,stereotyped behaviour score,"[3]; 30 min, hydrochloride, 50 mg/kg",2 and 0 (3×)
same,stereotyped behaviour score,"[3]; 45 min, hydrochloride, 50 mg/kg",2 and 0 (2×) and 1
same,stereotyped behaviour score,"[3]; 60 min, hydrochloride, 50 mg/kg",2 and 0 (3×)
same,stereotyped behaviour score,"[3]; 90 min, hydrochloride, 50 mg/kg",2 (2×) and 0 (2×)
same,stereotyped behaviour score,"[3]; 120 min, hydrochloride, 50 mg/kg",2 (2×) and 0 (2×)
same,stereotyped behaviour score,"[3]; 135 min, hydrochloride, 50 mg/kg",2 (2×) and 0 (2×)
same,stereotyped behaviour score,"[3]; 150 min, hydrochloride, 50 mg/kg",2 (2×) and 1 and 0
same,stereotyped behaviour score,"[3]; 180 min, hydrochloride, 50 mg/kg",1 (3×) and 0
same,stereotyped behaviour score,"[3]; 210 min, hydrochloride, 50 mg/kg",1 (2×) and 2 (2×)
same,stereotyped behaviour score,[3]; 240 min,1
same,Mean Score (stereotyped behaviour),[3],9.25
same,found to be active,[3]; summary of the CNS tests,active
same,inhibition at 25 µg/mL,HSV-1 (Herpes Simplex),72.5%
same,inhibition at 50 µg/mL,HSV-1 (Herpes Simplex),92%
same,inhibition at 75 µg/mL,HSV-1 (Herpes Simplex); 75 μg/ml,98%
same,inhibition at 100 µg/mL,HSV-1 (Herpes Simplex),99.9%
same,MNTC,[4],50 µg/mL
"C1CCN(NCC23CC4CC(CC(C4)C2)C3)CC1 [Example 8, 1-(Adamant-1'-ylmethylamino)piperidine hydrochloride]",IC50,[1],5 to 30 µg/mL
same,growth of C. albicans,Candida albicans; 10 μg/ml,++++
same,growth of C. albicans,Candida albicans; 50 μg/ml,++++
same,growth of C. albicans,Candida albicans; 100 μg/ml,++++
same,growth of T. rubrum,Trichophyton rubrum,++++
same,growth of T. mentagrophytes,[5],++++
"NNCC12CC3CC(CC(C3)C1)C2 [Example 14, (Adamant-1-ylmethyl)hydrazine hydrochloride]","Leishmania amastigote, activity score",L. tropica amastigotes; 10 μg,± (partial clearance of parasites in 72 hours or more)
same,"Leishmania amastigote, activity score",L. tropica amastigotes; 100 μg,++ (clearance of all parasites in 48 hrs)
same,"Trypanosoma in vitro, activity score",Trypanosoma; 10 μg,+++ (no viable parasites after 24 hours)
same,"Trypanosoma in vitro, activity score",Trypanosoma; 100 μg,+++ (no viable parasites after 24 hours)
same,active against Trypanosoma,Trypanosoma,active
same,active against Leishmania,Leishmania,active
"CN(N)CC12CC3CC(CC(C3)C1)C2 [Example 15, 1-Methyl-1-(adamant-1'-ylmethyl)hydrazine hydrochloride hydrate]","Leishmania promastigote, activity score",L. tropica promastigotes; 10 μg,- (viable parasites after 120 hours.)
same,"Leishmania promastigote, activity score",L. tropica promastigotes; 100 μg,+++ (no viable parasites after 24 hours)
same,active against Leishmania,Leishmania,active
"CN(N)CC1C2CC3CC(C2)CC1C3 (stereo not drawn) [Example 16, 1-Methyl-1-(adamant-2'-ylmethyl)hydrazine hydrochloride]",growth of C. albicans,Candida albicans; 10 μg/ml,++++
same,growth of C. albicans,Candida albicans; 50 μg/ml,++++
"c1ccc(CCNNCC23CC4CC(CC(C4)C2)C3)cc1 [Example 25, 1-(Adamant-1'-ylmethyl)-2-phenethylhydrazine dihydrate]",IC50,[1],5 to 30 µg/mL
"C1CCN(NCC2C3CC4CC(C3)CC2C4)C1 (stereo not drawn) [Example 31, 1-(Adamant-2'-ylmethylamino)pyrrolidine hydrochloride]",inhibition at 25 µg/mL,HSV-1 (Herpes Simplex),51%
same,inhibition at 50 µg/mL,HSV-1 (Herpes Simplex),91%
same,inhibition at 100 µg/mL,HSV-1 (Herpes Simplex),97%
"CC(C)N(N)CC12CC3CC(CC(C3)C1)C2 [Example 38, 1-(Adamant-1'-ylmethyl)-1-isopropylhydrazine hydrochloride]",IC50,[1],5 to 30 µg/mL
same,growth of C. albicans,Candida albicans; 10 μg/ml,++++
same,growth of C. albicans,Candida albicans; 50 μg/ml,++++
same,growth of C. albicans,Candida albicans; 100 μg/ml,++++
same,growth of T. rubrum,Trichophyton rubrum,++++
same,growth of T. mentagrophytes,[5],++++
"N=C(N)c1ccc(OCCCCCOc2ccc(C(=N)N)cc2)cc1 [Pentamidine, reference compound]","Leishmania promastigote, activity score",L. tropica promastigotes; 10 μg,+++ (no viable parasites after 24 hours)
same,"Leishmania promastigote, activity score",L. tropica promastigotes; 100 μg,+++ (no viable parasites after 24 hours)
same,"Trypanosoma in vitro, activity score",Trypanosoma; 10 μg,- (viable parasites after 120 hours.)
same,"Trypanosoma in vitro, activity score",Trypanosoma; 100 μg,++ (no viable parasites after 48 hours)
"NC12CC3CC(CC(C3)C1)C2 [Symmetrel, reference compound]",anticataleptic effect,[2]; in order rat 1 to rat 5,0/4 and 2/4 and 3/4 (3×)
same,Total Score (stereotyped behaviour),[3]; 50 mg/kg,17 (3×) and 13
same,stereotyped behaviour score,[3]; 0 min,0
same,stereotyped behaviour score,[3]; 30 min,1
same,stereotyped behaviour score,[3]; 45 min,1
same,stereotyped behaviour score,"[3]; 60 min, 50 mg/kg",2 (2×) and 1 (2×)
same,stereotyped behaviour score,"[3]; 90 min, 50 mg/kg",1 (3×) and 2
same,stereotyped behaviour score,[3]; 120 min,2
same,stereotyped behaviour score,[3]; 135 min,2
same,stereotyped behaviour score,[3]; 150 min,2
same,stereotyped behaviour score,[3]; 180 min,2
same,stereotyped behaviour score,"[3]; 210 min, 50 mg/kg",2 (3×) and 1
same,stereotyped behaviour score,"[3]; 240 min, 50 mg/kg",2 (3×) and 0
same,Mean Score (stereotyped behaviour),[3],16

# Reference: patent US4202892A, “Biocidal methyladamantyl hydrazines and pharmaceutical compositions containing them” (Teva Pharmaceutical Industries, Ltd., priority 1977, dated 1980)
